Reference: the supplement of paper PMC11208160

Assay: recombinant barcode read abundance after kanamycin selection (control-corrected) (log10(CPM+1)); higher = more efficient recombination; sequences stand for … in AGTGCAGAGAAAATCGGCCAGTTTTCTCTGCCTGCAGTCCGCATGCCGT…ATTTATGCAGCGGACTGCCTTTCTCCCAAAGTGATAAACCGGACAGTATCATGGACCGGTTTTCCCGGTAATCCGTATTTGCAAGGTTGGTTTCACT; site = the 11-nt target
Method in brief: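 Each value is log10(CPM+1). It describes recombination efficiency, taken as averaged, control-corrected counts per million of barcodes at recombinant junctions. The pooled E. coli library paired targets with IS621 bridge RNA target-binding loops, was co-electroporated with a donor plasmid, and was plated twice on chloramphenicol/ampicillin LB agar (control) and twice on chloramphenicol/ampicillin/kanamycin containing 0.1 mM IPTG.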

Sequence | recombinant barcode read abundance (log10)
TCGCGACGATGGGTTCTAACCTGTTGCCGAG [TCGCGACCTCG_LTGcore_GA_RTGcore_CT] (site TCGCGACCTCG) (LTG core: GA, RTG core: CT) | 0.241
TCGCGACGATGGGTTCTAACCTGTTGCCGTC [TCGCGACCTCG_LTGcore_GA_RTGcore_GA] (site TCGCGACCTCG) (LTG core: GA, RTG core: GA) | 0.123
TCGCGACGCTGGGTTCTAACCTGTTGCCGAG [TCGCGACCTCG_LTGcore_GC_RTGcore_CT] (site TCGCGACCTCG) (LTG core: GC, RTG core: CT) | 0.235
TCGCGACGTTGGGTTCTAACCTGTTGCCGAC [TCGCGACCTCG_LTGcore_GT_RTGcore_GT] (site TCGCGACCTCG) (LTG core: GT, RTG core: GT) | 0.0448
TCGCGACTATGGGTTCTAACCTGTTGCCGAG [TCGCGACCTCG_LTGcore_TA_RTGcore_CT] (site TCGCGACCTCG) (LTG core: TA, RTG core: CT) | 0.0865
TCGCGACTGTGGGTTCTAACCTGTTGCCGCA [TCGCGACCTCG_LTGcore_TG_RTGcore_TG] (site TCGCGACCTCG) (LTG core: TG, RTG core: TG) | 0.419
TCTACCCAATGGGTTCTAACCTGTTGCTGTT [TCTACCCCTCA_LTGcore_AA_RTGcore_AA] (site TCTACCCCTCA) (LTG core: AA, RTG core: AA) | 0.186
TCTACCCATTGGGTTCTAACCTGTTGCTGAG [TCTACCCCTCA_LTGcore_AT_RTGcore_CT] (site TCTACCCCTCA) (LTG core: AT, RTG core: CT) | 0.331
TCTACCCCATGGGTTCTAACCTGTTGCTGTG [TCTACCCCTCA_LTGcore_CA_RTGcore_CA] (site TCTACCCCTCA) (LTG core: CA, RTG core: CA) | 0.0357
TCTACCCCGTGGGTTCTAACCTGTTGCTGAG [TCTACCCCTCA_LTGcore_CG_RTGcore_CT] (site TCTACCCCTCA) (LTG core: CG, RTG core: CT) | 0.0746
TCTACCCCGTGGGTTCTAACCTGTTGCTGCG [TCTACCCCTCA_LTGcore_CG_RTGcore_CG] (site TCTACCCCTCA) (LTG core: CG, RTG core: CG) | 0.0225
TCTACCCCTTGGGTTCTAACCTGTTGCTGAC [TCTACCCCTCA_LTGcore_CT_RTGcore_GT] (site TCTACCCCTCA) (LTG core: CT, RTG core: GT) | 0.169
TCTACCCCTTGGGTTCTAACCTGTTGCTGCG [TCTACCCCTCA_LTGcore_CT_RTGcore_CG] (site TCTACCCCTCA) (LTG core: CT, RTG core: CG) | 0.0367
TCTACCCCTTGGGTTCTAACCTGTTGCTGCT [TCTACCCCTCA_LTGcore_CT_RTGcore_AG] (site TCTACCCCTCA) (LTG core: CT, RTG core: AG) | 0.0324
TCTACCCCTTGGGTTCTAACCTGTTGCTGGT [TCTACCCCTCA_LTGcore_CT_RTGcore_AC] (site TCTACCCCTCA) (LTG core: CT, RTG core: AC) | 0.0498
TCTACCCCTTGGGTTCTAACCTGTTGCTGTC [TCTACCCCTCA_LTGcore_CT_RTGcore_GA] (site TCTACCCCTCA) (LTG core: CT, RTG core: GA) | 0.0329
TCTACCCCTTGGGTTCTAACCTGTTGCTGTT [TCTACCCCTCA_LTGcore_CT_RTGcore_AA] (site TCTACCCCTCA) (LTG core: CT, RTG core: AA) | 0.07

Sequence | recombinant barcode read abundance (log10)
TCTACCCGATGGGTTCTAACCTGTTGCTGTC [TCTACCCCTCA_LTGcore_GA_RTGcore_GA] (site TCTACCCCTCA) (LTG core: GA, RTG core: GA) | 0.0498
TCTACCCGGTGGGTTCTAACCTGTTGCTGAG [TCTACCCCTCA_LTGcore_GG_RTGcore_CT] (site TCTACCCCTCA) (LTG core: GG, RTG core: CT) | 0.0172
TCTACCCTATGGGTTCTAACCTGTTGCTGAG [TCTACCCCTCA_LTGcore_TA_RTGcore_CT] (site TCTACCCCTCA) (LTG core: TA, RTG core: CT) | 0.0453
TGATACCAATGGGTTCTAACCTGTTGCGTAG [TGATACCCTAC_LTGcore_AA_RTGcore_CT] (site TGATACCCTAC) (LTG core: AA, RTG core: CT) | 0.143
TGATACCACTGGGTTCTAACCTGTTGCGTAG [TGATACCCTAC_LTGcore_AC_RTGcore_CT] (site TGATACCCTAC) (LTG core: AC, RTG core: CT) | 0.135
TGATACCCTTGGGTTCTAACCTGTTGCGTCC [TGATACCCTAC_LTGcore_CT_RTGcore_GG] (site TGATACCCTAC) (LTG core: CT, RTG core: GG) | 0.629
TGATACCCTTGGGTTCTAACCTGTTGCGTCG [TGATACCCTAC_LTGcore_CT_RTGcore_CG] (site TGATACCCTAC) (LTG core: CT, RTG core: CG) | 0.0319
TGATACCCTTGGGTTCTAACCTGTTGCGTCT [TGATACCCTAC_LTGcore_CT_RTGcore_AG] (site TGATACCCTAC) (LTG core: CT, RTG core: AG) | 0.133
TGATACCCTTGGGTTCTAACCTGTTGCGTGA [TGATACCCTAC_LTGcore_CT_RTGcore_TC] (site TGATACCCTAC) (LTG core: CT, RTG core: TC) | 0.864
TGATACCCTTGGGTTCTAACCTGTTGCGTGG [TGATACCCTAC_LTGcore_CT_RTGcore_CC] (site TGATACCCTAC) (LTG core: CT, RTG core: CC) | 0.651
TGATACCGATGGGTTCTAACCTGTTGCGTAG [TGATACCCTAC_LTGcore_GA_RTGcore_CT] (site TGATACCCTAC) (LTG core: GA, RTG core: CT) | 0.221
TGATACCGTTGGGTTCTAACCTGTTGCGTAC [TGATACCCTAC_LTGcore_GT_RTGcore_GT] (site TGATACCCTAC) (LTG core: GT, RTG core: GT) | 0.0235
TGATACCGTTGGGTTCTAACCTGTTGCGTAG [TGATACCCTAC_LTGcore_GT_RTGcore_CT] (site TGATACCCTAC) (LTG core: GT, RTG core: CT) | 0.236
TGTATTCACTGGGTTCTAACCTGTTGCCTAG [TGTATTCCTAG_LTGcore_AC_RTGcore_CT] (site TGTATTCCTAG) (LTG core: AC, RTG core: CT) | 0.0447
TGTATTCACTGGGTTCTAACCTGTTGCCTGT [TGTATTCCTAG_LTGcore_AC_RTGcore_AC] (site TGTATTCCTAG) (LTG core: AC, RTG core: AC) | 0.251
TGTATTCCTTGGGTTCTAACCTGTTGCCTAA [TGTATTCCTAG_LTGcore_CT_RTGcore_TT] (site TGTATTCCTAG) (LTG core: CT, RTG core: TT) | 0.0404
TGTATTCCTTGGGTTCTAACCTGTTGCCTGC [TGTATTCCTAG_LTGcore_CT_RTGcore_GC] (site TGTATTCCTAG) (LTG core: CT, RTG core: GC) | 0.133
